{
  "source": "patent US8722897B2",
  "about": "“Metal complexes of thiourea and derivatives as metal delivering anti-cancer and anti-inflammatory agents” (priority 2010, dated 2014)",
  "key": {"NADPH-reduced TrxR1": {"molecular_target": "T1, NADPH-reduced TrxR1 (Rattus norvegicus, UniProt O89049)", "T1 sequence (O89049 1-499)": "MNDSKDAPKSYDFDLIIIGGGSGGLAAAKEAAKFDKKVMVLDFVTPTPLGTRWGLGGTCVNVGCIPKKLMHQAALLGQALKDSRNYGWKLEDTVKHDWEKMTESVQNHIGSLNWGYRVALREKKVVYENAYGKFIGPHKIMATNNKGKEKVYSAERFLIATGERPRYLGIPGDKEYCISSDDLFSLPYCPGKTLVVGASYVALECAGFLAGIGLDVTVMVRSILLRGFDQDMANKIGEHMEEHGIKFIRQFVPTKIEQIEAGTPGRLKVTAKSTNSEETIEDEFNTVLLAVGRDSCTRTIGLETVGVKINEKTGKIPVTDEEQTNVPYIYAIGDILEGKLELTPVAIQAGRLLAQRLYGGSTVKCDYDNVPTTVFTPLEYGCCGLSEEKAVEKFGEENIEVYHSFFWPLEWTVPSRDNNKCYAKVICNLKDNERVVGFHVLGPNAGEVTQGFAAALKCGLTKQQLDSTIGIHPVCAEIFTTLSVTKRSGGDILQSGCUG", "experiment": "BIAM labeling of cysteine and selenocysteine residues of TrxR1", "assay_type": "biochemical", "conditions": "TrxR 0.1 μM, compound 4 μM, pH 8.5 and pH 6.5", "source_text": "The reduced TrxR has free —SH (Cys496) and —SeH (Sec497) groups at the C-terminal active site, making it vulnerable to be attacked by Au(I). ^20, 22, 23 These redox active sites can be probed by biotinylated iodoacetamide (BIAM), which alkylates the free —SH and —SeH groups; and the resulting adduct can be detected by western blot experiment using streptavidin-linked horseradish peroxidase (FIG. 10). ^26, 27 It has been shown that these residues can be selectively alkylated by BIAM by adjusting the pH. At pH 8.5, both —SH and —SeH are alkylated. At pH 6.5, only the —SeH is alkylated owing to the low pKa value for selenocysteine, and thus a weaker streptavidin signal was obtained in which case. […] It is highly likely that the formation of the tight enzyme-inhibitor complex (EI*) involves covalent modification of the redox active selenocysteine and cysteine residue via the Au(I) complex. ^28\nNADPH-reduced TrxR1 (0.1 μM) and 1 (4 μM) were incubated in reaction buffer (100 mM phosphate buffer, pH 7.4, 1 mM EDTA) at room temperature for 1 h. […] The separated proteins were transferred to nitrocellulose membrane and the BIAM labeled proteins were detected with horseradish peroxidase conjugated streptavidin and enhanced chemiluminescence detection."}, "Recombinant rat TrxR1": {"molecular_target": "T2, Recombinant rat TrxR1 (Rattus norvegicus, UniProt O89049)", "T2 construct": "purchased ICMO Corp, Sweden (so in the source)", "T2 sequence (O89049 1-499)": "T1 sequence (O89049 1-499)", "experiment": "biochemical", "conditions": "preformed EI*", "experimental": "1 nM Recombinant rat TrxR1 (ICMO Corp, Sweden) was reduced with 0.2 mM NADPH and then incubated with 0.3-10 nM of 1 for 30 min in a buffer of 100 mM phosphate buffer, pH 7.4 and 1 mM EDTA. The residual activities were measured using 0.75, 1.5 or 3 mM DTNB (FIG. 7A). The data were fit into Eq. 1 using GraphPad Prism 3.0 software. vs/vo=(Et−Ki−It+((It+Ki′−Et)^2+(4KiEt))^1/2)/(2Et) (1) Eq. 1 describes the rate law of tight-binding inhibition in which case the inhibitor concentration is substantially depleted owing to formation of enzyme-inhibitor complex. In this equation, vo is the observed velocity in the absence of inhibitor, vs is the steady-state velocity in the presence of inhibitor, Et is the total enzyme concentration, and I is the inhibitor concentration. […] Ki=Ki*(1+S/Km) (2) Determination of Ki by Progress Curve Analysis ^35, 36 (FIG. 8)"}},
  "data": [
    {"smiles": "COc1ccc(N2CCN(c3ccc(OC)cc3)C2=[S+][Au-][S+]=C2N(c3ccc(OC)cc3)CCN2c2ccc(OC)cc2)cc1", "note": "[complex 1, [Au(TU)2]Cl]", "values": [
      {"measurement": "BIAM labeling of TrxR", "setting": "NADPH-reduced TrxR1", "value": "inhibited"},
      {"measurement": "Ki", "setting": "Recombinant rat TrxR1; apparent inhibitory constant (Ki), 1 nM TrxR1, 30 min preincubation, steady state rate law", "value": 670, "unit": "pM"},
      {"measurement": "Ki", "setting": "Recombinant rat TrxR1; inhibitory constant Ki*, corrected for substrate competition, Km 0.2 mM", "value": 36, "unit": "pM"}
    ]}
  ]
}
